The record followed here is patent US20250057823A1, “COMPOSITION FOR IMPROVING CARDIAC FUNCTION” (Kyoto University, priority 2021, published 2025).

Structures are written as SMILES. Structures can show the parent of a compound that is named as a salt.

Assay [1] concerns beagle dog models of heart failure. Description: Beagle dog models of rapid ventricular pacing-induced heart failure. It is filed as in vivo. As to conditions: infusion per FIG. 17 protocol. How it is done: After induction of general anesthesia with thiopental sodium (20 mg/kg, i.v.: 0.5 g of Labonal injection, Nipro ES Pharma Corporation) in 10- to 12-month-old male beagle dogs (9.80-11.50 kg), a tracheal cannula was inserted into the airway, and artificial respiration was performed with an Acoma veterinary ventilator (PRO-45Va, Acoma Medical Corporation). Anesthesia was maintained by inhalation of a gas mixture (Air:O2=3:0.2) and 1.0 to 2.5% isoflurane (isoflurane inhalation solution “Pfizer”, Mylan Seiyaku Co., Ltd.) using an Acoma animal anesthesia machine (NS-5000A, Acoma Medical Industry Co., Ltd.) to maintain a constant depth of anesthesia. An incision was made in the right side of the neck of the animal, an animal internal cardiac pacemaker (SIP-501, Star Medical Corporation) was implanted subcutaneously, a retractable screw-in reed (Tendril STS J, St. Jude Medical, Inc.) was inserted through the right jugular vein under X-ray fluoroscopy (BV Pulsera, Koninklijke Philips N.V.), and the tip was implanted in the right ventricular wall. Pacing was started at 244-251 beats/min on postoperative day 1. Dogs with ejection fraction (EF) decreasing to 30-50% at 4 weeks after pacemaker activation were considered to have heart failure and subjected to analysis.
Echocardiography was performed using a general-purpose ultrasound imaging system (Vivid S6, GE Medical Systems). The left ventricular end-diastolic diameter (LVIDd), left ventricular end-systolic diameter (LVIDs), ejection fraction (EF), and left ventricular internal diameter shortening (% FS) were measured in M-mode by placing a sector probe (10 MHz) on the chest.
Dogs were anesthetized intravenously with 14.5 to 22.3 mg/kg of secobarbital sodium (Injectable Ionar sodium (0.2), Nichi-Iko Co., Ltd.), followed by subcutaneous administration of 0.2 mg/kg of meloxicam (Metacam 0.5% injection, Boehringer Ingelheim Animal Health Japan Co.). A tracheal tube was inserted into the airway and connected to an Acoma animal ventilator (PRO-45Va, Acoma Medical Industry Co., Ltd.). The ventilator was set at a respiratory rate of 14-18 strokes/min and a tidal volume of 10-20 mL/kg/stroke, and respiration was controlled by an Acoma animal anesthesia machine (NS-5000A, Acoma Medical Industry Co., Ltd.) using a gas mixture (FiO2=0.3-1.0). The exhaled CO2 partial pressure was monitored using an exhaled carbon dioxide monitor (OLG-2800, Nihon Kohden Corporation). The animals were fixed in the dorsal position and the thighs and neck were shom. Anesthesia was maintained by continuous intravenous infusion of sodium secobarbital (5 mg/kg/hr) through the radial cutaneous vein using a Telfusion syringe pump (STC-523, Terumo Corporation). A Swan-Ganz catheter was inserted through the left femoral vein. A catheter for coronary angiography was inserted through the left femoral artery. A 5F sheath for arterial blood sampling was placed in the right femoral artery. A catheter for PV-loop analysis was inserted from the left internal carotid artery. An 8F occlusion balloon was placed from the right femoral vein for occlusion testing. In addition, KUS121 was administered from the left common jugular vein.
Beagle dog models of heart failure were prepared by rapid ventricular pacing. Cardiac function was assessed by echocardiography before KUS121 administration and after continuous infusion at 40 mg/h. KUS121 increased LVEF, even if it was based on either of the Teichholz method and the modified-Simpson's method, and increased % FS (FIG. 18). Changes in heart rate, systolic blood pressure, diastolic blood pressure, left ventricular ejection fraction, mean pulmonary artery pressure, pulmonary capillary wedge pressure, left ventricular end-diastolic pressure, and adjusted dp/dt are shown in FIGS. 19 to 21. […]

Another assay deals with TAC mice. Description: Acute effect on mouse models of heart failure (TAC, single injection 5 weeks later). The settings on record: TAC mice 5 weeks after TAC, 50 mg/kg, echocardiography before and 10 minutes after injection. Type of assay: in vivo. How it is done:
Transverse aortic constriction (TAC) was performed as described previously [Date, et al. (2002) The antioxidant N-2-mercaptopropionyl glycine attenuates left ventricular hypertrophy in in vivo murine pressure-overload model. J Am Coll Cardiol 39: 907-912.]. Briefly, 8- to 10-week-old mice were anesthetized with anesthetic (0.3 mg/kg of medetomidine, 4.0 mg/kg of midazolam, and 5.0 mg/kg of butorphanol) administered intraperitoneally, and the proximal portion of the sternum was cut open to visualize the aorta. A 7-0 silk suture was placed around the aortic arch distal to the brachiocephalic artery. The suture was tightened firmly around a blunt 26-gauge needle placed adjacent to the aorta. The needle was then removed, and the chest and overlying skin were closed. Sham-operated mice underwent an identical surgical procedure without ligation of the aortic arch. At the end of the operation, 0.3 mg/kg of atipamezole was administered subcutaneously to reverse medetomidine. FIG. 1 is a schematic diagram of TAC.
To analyze the cardiac function, we used Vevo® 2100 (VISUALSONICS) at the indicated time points after TAC operation. Mice were kept under inhalation anesthesia with 2.5% isoflurane. LV function was measured in M mode of the parasternal short-axis view.
Mice were subjected to TAC at 8 weeks of age. Five weeks later (at 13 weeks of age), the mice were injected with KUS121 (50 mg/kg), and left ventricular ejection fraction (LVEF), left ventricular end-diastolic diameter (LVDd), and heart rate (HR) were assessed by echocardiography before and 10 minutes after the injection.
Mice were subjected to TAC at 8 weeks of age. Five weeks later (at 13 weeks of age), the mice were injected with KUS121 (50 mg/kg), and left ventricular pressure was measured by catheterization before and 10 minutes after the injection. The left ventricular pressure was 46.6 mmHg before KUS121 administration, and increased to 128.9 mmHg 10 minutes after the administration. In addition, Max/min dp/dt was changed from 1295.5/−621.4 mmHg/s to 3972.8/−1311.1 mmHg/s. […] Left ventricular ejection fraction was then measured over time and was 37% before KUS121 administration, increased to 67% 5 minutes after the administration, and returned to the baseline about 2 hours after the administration (FIG. 16).
Mice were subjected to TAC at 8 weeks of age. Five weeks later (at 13 weeks of age), the mice were injected with KUS187 (50 mg/kg), and left ventricular ejection fraction was assessed by echocardiography before and 10 minutes after the injection.

Regarding `CC(CCc1ccc(O)cc1)NCCc1ccc(O)c(O)c1` (stereo not drawn) [dobutamine, reference compound], in assay [1], the heart rate entry was “increased heart rate” and the “left ventricular systolic function” value is “improved”.
With `CCCCOc1c(C=O)cc(C)cc1-c1ccc(/N=N/c2cc(S(=O)(=O)O)c3ccccc3c2N)cn1` [KUS187, 4-amino-3-[6-(3-formyl-2-butoxy-5-methylphenyl)pyridine-3-ylazo]naphthalene-1-sulfonic acid sodium salt], the “left ventricular ejection fraction (LVEF)” value with TAC mice is “increased”.
